Reference: ChEMBL document CHEMBL3817797, “Crystal Structure of Human E-Cadherin-EC1EC2 in Complex with a Peptidomimetic Competitive Inhibitor of Cadherin Homophilic Interaction” (J Med Chem, 2016)
Calls of active or inactive are those of the source. The calls are words filed in the database; no cut-off is given here.

Experiments:
[1] = biological target: T1, Cadherin-1 (Homo sapiens) (UniProt P12830); experiment: Inhibition of E-cadherin-Fc chimeric protein binding to E-cadherin in human OAW42 cells at 2 mM preincubated for 1 hr followed by E-cadherin-Fc addition measured after 2 hrs by ELISA relative to control; assay type: cell-based; conditions: OAW-42
T1 sequence (whole entry): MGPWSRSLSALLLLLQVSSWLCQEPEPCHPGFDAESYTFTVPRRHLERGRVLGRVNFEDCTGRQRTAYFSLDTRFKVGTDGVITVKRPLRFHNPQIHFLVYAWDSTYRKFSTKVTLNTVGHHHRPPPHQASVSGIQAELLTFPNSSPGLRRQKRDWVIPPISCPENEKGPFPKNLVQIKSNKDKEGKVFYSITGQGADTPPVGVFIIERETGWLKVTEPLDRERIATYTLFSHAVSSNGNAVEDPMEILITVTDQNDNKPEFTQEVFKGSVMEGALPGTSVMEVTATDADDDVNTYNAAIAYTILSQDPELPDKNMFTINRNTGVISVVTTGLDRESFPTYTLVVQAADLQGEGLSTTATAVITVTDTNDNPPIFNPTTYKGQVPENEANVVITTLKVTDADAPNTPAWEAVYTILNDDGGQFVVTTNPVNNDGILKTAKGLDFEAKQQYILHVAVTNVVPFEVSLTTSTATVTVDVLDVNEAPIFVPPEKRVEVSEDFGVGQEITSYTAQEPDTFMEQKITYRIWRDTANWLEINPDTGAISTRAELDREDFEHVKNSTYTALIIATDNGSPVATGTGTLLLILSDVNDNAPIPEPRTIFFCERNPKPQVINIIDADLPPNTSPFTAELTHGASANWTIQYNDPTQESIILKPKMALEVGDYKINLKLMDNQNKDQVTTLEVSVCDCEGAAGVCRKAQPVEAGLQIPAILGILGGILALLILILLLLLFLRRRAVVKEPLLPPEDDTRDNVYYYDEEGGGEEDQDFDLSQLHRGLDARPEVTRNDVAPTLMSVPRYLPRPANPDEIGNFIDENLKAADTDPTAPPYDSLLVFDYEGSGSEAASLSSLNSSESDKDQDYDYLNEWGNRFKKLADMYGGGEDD

[2] = biological target: T2, Cadherin-2 (Homo sapiens) (UniProt P19022); experiment: Inhibition of recombinant N-cadherin-Fc chimeric protein (unknown origin) homodimerization at 10 uM preincubated for 30 mins followed by N-cadherin-Fc addition by surface plasmon resonance analysis relative to control
T2 sequence (whole entry): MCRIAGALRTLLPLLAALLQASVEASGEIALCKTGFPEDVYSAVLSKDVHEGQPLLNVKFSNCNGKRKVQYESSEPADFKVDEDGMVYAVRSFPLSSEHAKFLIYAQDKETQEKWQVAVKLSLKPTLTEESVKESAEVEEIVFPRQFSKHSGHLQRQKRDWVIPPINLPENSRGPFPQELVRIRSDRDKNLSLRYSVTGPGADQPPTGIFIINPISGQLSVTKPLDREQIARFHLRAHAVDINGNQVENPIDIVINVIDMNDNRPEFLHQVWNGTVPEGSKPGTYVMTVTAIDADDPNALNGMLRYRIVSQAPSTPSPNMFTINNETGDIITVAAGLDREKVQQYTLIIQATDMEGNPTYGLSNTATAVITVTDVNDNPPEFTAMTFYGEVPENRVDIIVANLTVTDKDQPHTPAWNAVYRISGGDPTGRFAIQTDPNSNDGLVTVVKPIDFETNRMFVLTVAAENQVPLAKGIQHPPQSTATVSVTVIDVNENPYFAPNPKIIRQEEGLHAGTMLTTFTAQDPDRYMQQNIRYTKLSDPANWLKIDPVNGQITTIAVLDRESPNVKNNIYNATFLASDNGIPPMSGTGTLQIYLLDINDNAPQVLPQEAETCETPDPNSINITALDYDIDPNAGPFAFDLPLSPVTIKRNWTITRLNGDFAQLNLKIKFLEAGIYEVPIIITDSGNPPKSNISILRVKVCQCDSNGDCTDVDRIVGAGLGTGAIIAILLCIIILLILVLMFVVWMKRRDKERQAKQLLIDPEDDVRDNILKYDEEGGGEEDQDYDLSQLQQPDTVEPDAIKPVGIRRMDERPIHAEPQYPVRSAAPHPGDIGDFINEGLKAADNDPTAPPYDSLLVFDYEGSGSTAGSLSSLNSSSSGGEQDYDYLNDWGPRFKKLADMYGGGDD

[3] = biological target: T2, Cadherin-2 (Homo sapiens); experiment: Inhibition of N-cadherin-Fc chimeric protein binding to N-cadherin in human SKOV3 cells at 2 mM preincubated for 1 hr followed by N-cadherin-Fc addition measured after 2 hrs by ELISA relative to control; assay type: cell-based; conditions: SK-OV-3
[4] = biological target: T2, Cadherin-2 (Homo sapiens); experiment: Inhibition of N-cadherin-Fc chimeric protein binding to N-cadherin in human SKOV3 cells at 1 mM preincubated for 1 hr followed by N-cadherin-Fc addition measured after 2 hrs by ELISA relative to control; assay type: cell-based; conditions: SK-OV-3
[5] = biological target: T1, Cadherin-1 (Homo sapiens); experiment: Binding affinity to E-cadherin in human OAW42 cells assessed as effect on PI3K/Akt signalling activation by measuring phosphorylation of Akt at Ser-473 residue at 1 to 2 mM by immunoblot analysis; assay type: cell-based; conditions: OAW-42

| Compound | inhibition [1] [%] | inhibition [2] [%] | inhibition [3] [%] | inhibition [4] | Activity [5] |
| --- | --- | --- | --- | --- | --- |
| CC(=O)N[C@H]1CSSC[C@@H](C(N)=O)NC(=O)[C@H](C(C)C)NC(=O)[C@H](C)NC(=O)[C@H](Cc2c[nH]cn2)NC1=O | 30 | 28 | 50 | inactive |  |
| CC[C@H](C)[C@H](NC(=O)C[C@@H]1NC(=O)[C@H](CNC(=O)[C@@H](N)CC(=O)O)N(Cc2ccccc2)C1=O)C(=O)NC(C)(C)C | 50 | 55 | 84 | 65% | Active |
